Test results reported in patent US10058520B2, “Compositions and methods for treating alzheimer's disease and dementia” (Department of Veterans Affairs, priority 2007, dated 2018).

Assays:
[1] = system: +356/+755 region of the first intron of the mouse mdm2 gene in LA-N-5 neuroblastoma cells and HCC1806 breast cancer cells; experiment: pGL3MDM2 reporter transfection assay; type: cell-based; settings: LA-N-5 and p53 negative HCC1806 cells; FIG. 8 (treatment with T3)
Description: In order to evaluate the direct effect of thyroid hormone on mdm2 gene expression, we cloned the +356/+755 region from the first intron of the mouse mdm2 gene into pGL3-Promoter vector (pGL3MDM2) for use in transfection assays. This region contains an element which binds monomers and homodimers of TRα, in addition to heterodimers of TRα and RXRβ.

[2] = system: human Aβ 1-40 and 1-42; experiment: ELISA for human Aβ in brain of huAPP transgenic mice treated with CHP+Zn; type: in vivo, human APP transgenic mice; settings: 1.0 mg/L CHP+10 mg/L Zn, or Zn or CHP alone, n=9, FIG. 14
Description: According to our studies, CHP in combination with a zinc salt decreases Aβ 1-40 and 1-42 in mice transgenic for human APP. […]
In some embodiments, higher doses are effective as well.

[3] = blood, after a single dose; cited from earlier work
[4] = system: APP secretion in SH-SY5Y and LA-N-5 human neuroblastoma cell lines and NHNP neuronal progenitor cells; experiment: APP isoform secretion in human neuroblastoma and neuronal progenitor cells (western blot); type: cell-based; settings: differentiated (+RA) and undifferentiated (-RA) SH-SY5Y, all tested human cell lines, 24 hours of treatment, FIG. 1
[5] = system: human Aβ 1-40 and 1-42; experiment: ELISA for human Aβ in brain of R1.40 huAPP transgenic mice treated with T4; type: in vivo, R1.40 human APP transgenic mice
Description: In another study, we discovered that thyroid hormone down-regulates Aβ 1-40 and 1-42 in mice transgenic for the human APP gene. […] R1.40 human APP transgenic mice contain the entire human APP gene carried on a yeast artificial chromosome.
Mice used in these studies carried the complete human APP gene (huAPP), including the 5′ upstream promoter region, inserted into a yeast artificial chromosome (YAC) construct and are referred to as huAPP-YAC transgenic mice (R1.40 strain). The huAPP gene in these mice contained the Swedish mutation and is expressed in high pathology brain regions.
R1.40 mice were implanted with T4 containing slow release pellets for three weeks and ELISA specific for human Aβ was performed utilizing normalized protein from mouse brain cytosols. We observed a 30% decrease in human Aβ 1-42 levels and a 25% decrease in Aβ 1-40 levels in mice treated for three weeks with T4. […] Thus, it has been shown that low level thyroid hormone therapy substantially decreases human Aβ40 and Aβ42 levels in both normal and hypothyroid transgenic mice (n=9 animals per group ±SD).

[6] = humans and mice; previous studies; cited from earlier work
[7] = system: insulin levels; settings: previous studies; concentration dependent relative to the amount of zinc; cited from earlier work
[8] = system: APP gene; experiment: RT-PCR of APP mRNA in brain of normal mice; type: in vivo; settings: normal mouse brain, day 21; FIG. 2 and 3; APP 751 mRNA for hypothyroid mice
Description: On day 21, animals were killed, whole brains were removed and hemisected for protein and RNA analysis, and serum was collected for T4 analysis.

[9] = system: APP isoforms; experiment: Western blot with anti-APP antibody on hemisected brain extracts; type: in vivo, mice; settings: day 21, FIG. 4
Protocol: In FIG. 4, Western blots were performed utilizing anti-APP antibody on protein from the hemisected brain extracts.

[10] = R1.40 mice, T4 slow release pellets for three weeks, brain cytosols, ELISA

thyroid hormone
reporter expression of pGL3MDM2 [1]: negative regulation

[Zn] [Zn]
brain levels of soluble and insoluble Aβ40 and Aβ42 vs control [2]: no significant changes

N[C@@H](Cc1cc(I)c(Oc2ccc(O)c(I)c2)c(I)c1)C(=O)O [T3, L-triiodothyronine]
half-life [3]: hours
APP secretion [4]: negative hormonal regulation of APP secretion in a concentration dependent manner

NC(Cc1cc(I)c(Oc2cc(I)c(O)c(I)c2)c(I)c1)C(=O)O (stereo not shown) [T4, 3:5,3′:5′ tetra-iodothyronine]
half-life [3]: several days
decrease in Aβ 1-40 levels [5, 10]: 25%
decrease in human Aβ 1-42 levels [5, 10]: 30%

O=C1N[C@@H](Cc2cnc[nH]2)C(=O)N2CCC[C@@H]12 [CHP, cyclo-Hispro]
toxicity [6]: non-toxic
insulin levels [7]: does not decrease
brain levels of soluble and insoluble Aβ40 and Aβ42 vs control [2]: no significant changes

CCCc1cc(=O)[nH]c(=S)[nH]1 [propylthiouracil]
APP mRNA levels (RT-PCR) vs control animals [8]: increased
expression of APP isoforms (western blot) relative to euthyroid animals [9]: increased
brain Aβ levels in hypothyroid animals ([5]; iodine-deficient PTU diet for three weeks, FIG. 6): increase
